Data set [1] is described as follows: Body weight in mouse lung cancer xenograft model. In kind it is in vivo. The settings on record: IP 40 mg/kg/day, tumor-bearing mice. The text has this:
The mice were maintained under specific pathogen-free condition in a 12-h light-dark cycle. Experimental conditions were followed in accordance to the “Institutional AnimalCare and User Committee guidelines” of the Macau University of Science and Technology. Xenograft mouse model was constructed as previously described (Wong, V. K. et al., Oncotarget, 2016, 7, 9907-9924). LLC-1 Lewis lung cancer cells (1×10^6 cells) were subcutaneously injected in the right dorsal region of the mice. After tumors grew to about 100 mm^3, the mice were randomly divided into 3 groups: 1) the control group, 2) 40 mg/kg cobalt-polypyridyl complex of Formula (IV) group, and 3) 40 mg/kg cobalt-polypyridyl complex of Formula (IV) as chloride, also referenced as (IV)-Cl (water soluble form) group. The cobalt-polypyridyl complex of Formula (IV) was dissolved in 100 μL buffer (PEG400:EtOH:ddH2O=6:1:3), whereas (IV)-Cl (water soluble form) was dissolved in ddH2O. The complexes were then intraperitoneal injected in mice every day. The body weight of each mouse was recorded with the tumor volume determined by Vernier caliper using the formula of L×W^2×0.52, where L is the longest diameter of tumor and W is the shortest diameter of tumor. Mice with tumor implants were sacrificed after 10 days when the tumor size of vehicle control group reached above 1000 mm^3 due to animal ethical issue.

The subject of data set [2] is HeLa cells (cervical cancer). Description: MTT cytotoxicity assay, HeLa. The class given is cell-based. To be noted: 72 h. Here is the method: (§1) All prepared cobalt-polypyridyl complexes were dissolved in DMSO at a final concentration of 50 mmol/L and stored at −20° C. before use. Cytotoxicity was assessed by using the 3-(4,5-dimethylthiazol-2-yl)-2,5-diphenyltetrazolium bromide (MTT) (5.0 mg/ml) assay as previously described (Wong, V. K. et al., Cell Death Dis, 2013, 4, e720). Briefly, 4×10^3 cells per well were seeded in 96-well plates before drug treatments. After overnight culture, the cells were then exposed to different concentrations of selected compounds (0.039-100 μmol/L) for 72 h. Cells without drug treatment were used as control. Subsequently, MTT (10 μL) solution was added to each well and incubated at 37° C. for 4 h followed by the addition of 100 μL solubilization buffer (10% SDS in 0.01 mol/L HCl) and overnight incubation. A570 nm was then determined in each well on the next day. The percentage of cell viability was calculated using the following formula: Cell viability (%)=Atreated/Acontrol×100. Data were obtained from three independent experiments. Cells include HeLa cells (cervical cancer), MCF-7 (breast cancer), H1299, H1975, A549 and LLC-1 (lung cancer), HepG2 and Hep3B (liver cancer) and LO2 (normal human hepatocytes).
For orientation: Tetrazolium assays rely on reduction of a dye to a coloured formazan, in cell work by metabolically active cells.

The subject of the next data set is MCF-7 (breast cancer). Nature of the data set: MTT cytotoxicity assay, MCF-7. In kind it is cell-based. To be noted: MCF-7, MTT, 72 h. Here is the method: as §1
Another data set deals with H1299 (lung cancer). Nature of the data set: MTT cytotoxicity assay, H1299. In kind it is cell-based, human. To be noted: 72 h. Here is the method:
as §1

The test system of the next data set is H1975 (lung cancer). Description: MTT cytotoxicity assay, H1975. In kind it is cell-based. The settings on record: 72 h. Here is the method:
as §1

The next data set concerns A549 (lung cancer). Nature of the data set: MTT cytotoxicity assay, A549. In kind it is cell-based. The settings on record: 72 h. Here is the method:
as §1

The next data set deals with LLC-1 (lung cancer). Nature of the data set: MTT cytotoxicity assay, LLC-1. The class given is cell-based. The settings on record: LLC-1, MTT, 72 h. Here is the method: as §1
The test system of a further data set is HepG2 (liver cancer). Description: MTT cytotoxicity assay, HepG2. In kind it is cell-based. The settings on record: 72 h. Here is the method:
as §1

For the next data set, the system named is Hep 3B (liver cancer). Nature of the data set: MTT cytotoxicity assay, Hep3B. The class given is cell-based. To be noted: 72 h. Here is the method: as §1
For data set [3], the system named is LO2 (normal human hepatocytes). Nature of the data set: MTT cytotoxicity assay, LO2. The class given is cell-based. The settings on record: 72 h. Here is the method:
as §1

The test system of data set [4] is Taxol-sensitive MCF-7 cancer cells. Nature of the data set: MTT cytotoxicity, taxol-sensitive MCF-7. In kind it is cell-based. The settings on record: MCF-7, MTT, 72 h. Here is the method: as §1, with “experiments.” for “experiments. Cells include HeLa cells (cervical cancer), MCF-7 (breast cancer), H1299, H1975, A549 and LLC-1 (lung cancer), HepG2 and Hep3B (liver cancer) and LO2 (normal human hepatocytes).”

Data set [5] concerns Taxol-resistant MCF-7 cancer cells. Nature of the data set: MTT cytotoxicity, taxol-resistant MCF-7. The class given is cell-based. Here is the method: as §1, with “experiments.” for “experiments. Cells include HeLa cells (cervical cancer), MCF-7 (breast cancer), H1299, H1975, A549 and LLC-1 (lung cancer), HepG2 and Hep3B (liver cancer) and LO2 (normal human hepatocytes).”
(§2) All cells were obtained from the American Type Culture Collection (Rockville, Md., USA) unless otherwise specified. Immortalized wild-type and Atg7-deficient mouse embryonic fibroblasts (MEFs) were provided by Professor Masaaki Komatsu (Juntendo University, School of Medicine, Japan). Taxol-resistant types of A549, MCF-7, HCT-8 cancer cells, cisplatin-resistant SGC7901 cancer cells were purchased from KeyGEN BioTECH, China.

In data set [6] the test system is Taxol-sensitive HCT8 cancer cells. Nature of the data set: MTT cytotoxicity, taxol-sensitive HCT8. The class given is cell-based. To be noted: 72 h. Here is the method: as §1, with “experiments.” for “experiments. Cells include HeLa cells (cervical cancer), MCF-7 (breast cancer), H1299, H1975, A549 and LLC-1 (lung cancer), HepG2 and Hep3B (liver cancer) and LO2 (normal human hepatocytes).”

In data set [7] the test system is Taxol-resistant HCT8 cancer cells. Nature of the data set: MTT cytotoxicity, taxol-resistant HCT8. The class given is cell-based. Here is the method:
as §1, with “experiments.” for “experiments. Cells include HeLa cells (cervical cancer), MCF-7 (breast cancer), H1299, H1975, A549 and LLC-1 (lung cancer), HepG2 and Hep3B (liver cancer) and LO2 (normal human hepatocytes).”
as §2

The test system of data set [8] is Taxol-sensitive A549 cancer cells. Nature of the data set: MTT cytotoxicity, taxol-sensitive A549. The class given is cell-based. The settings on record: 72 h. Here is the method: as §1, with “experiments.” for “experiments. Cells include HeLa cells (cervical cancer), MCF-7 (breast cancer), H1299, H1975, A549 and LLC-1 (lung cancer), HepG2 and Hep3B (liver cancer) and LO2 (normal human hepatocytes).”

For data set [9], the system named is Taxol-resistant A549 cancer cells. Description: MTT cytotoxicity, taxol-resistant A549. In kind it is cell-based. Here is the method:
as §1, with “experiments.” for “experiments. Cells include HeLa cells (cervical cancer), MCF-7 (breast cancer), H1299, H1975, A549 and LLC-1 (lung cancer), HepG2 and Hep3B (liver cancer) and LO2 (normal human hepatocytes).”
as §2

The test system of data set [10] is cisplatin-sensitive A2780 ovarian cancer cells. Description: MTT cytotoxicity, cisplatin-sensitive A2780. The class given is cell-based. To be noted: 72 h. Here is the method:
as §1, with “experiments.” for “experiments. Cells include HeLa cells (cervical cancer), MCF-7 (breast cancer), H1299, H1975, A549 and LLC-1 (lung cancer), HepG2 and Hep3B (liver cancer) and LO2 (normal human hepatocytes).”
(§3) Cisplatin-sensitive or -resistant A2780, OV2008 and C13 cancer cells were provided by Prof. Benjamin Tsang (Department of Obstetrics and Gynecology and Department of Cellular and Molecular Medicine, University of Ottawa, Canada). HCT116 p53^+/+ and p53^−/− isogenic human colon cancer cells were provided by Professor Bert Vogelstein (Ludwig Center at Johns Hopkins, Howard Hughes Medical Institute, USA). All media were supplemented with 10% fetal bovine serum and the antibiotics penicillin (50 U/ml) and streptomycin (50 μg/ml; Invitrogen, Paisley, Scotland, UK). All cell cultures were incubated at 37° C. in a 5% humidified CO2 incubator.

Data set [11] has as its system cisplatin-resistant A2780 ovarian cancer cells. Nature of the data set: MTT cytotoxicity, cisplatin-resistant A2780. The class given is cell-based. Here is the method:
as §1, with “experiments.” for “experiments. Cells include HeLa cells (cervical cancer), MCF-7 (breast cancer), H1299, H1975, A549 and LLC-1 (lung cancer), HepG2 and Hep3B (liver cancer) and LO2 (normal human hepatocytes).”
as §3

Data set [12] concerns cisplatin-sensitive SGC-7901 gastric cancer cells. Nature of the data set: MTT cytotoxicity, cisplatin-sensitive SGC-7901. In kind it is cell-based. To be noted: SGC-7901, MTT, 72 h. Here is the method:
as §1, with “experiments.” for “experiments. Cells include HeLa cells (cervical cancer), MCF-7 (breast cancer), H1299, H1975, A549 and LLC-1 (lung cancer), HepG2 and Hep3B (liver cancer) and LO2 (normal human hepatocytes).”

For data set [13], the system named is cisplatin-resistant SGC-7901 gastric cancer cells. Description: MTT cytotoxicity, cisplatin-resistant SGC-7901. The class given is cell-based. Here is the method:
as §1, with “experiments.” for “experiments. Cells include HeLa cells (cervical cancer), MCF-7 (breast cancer), H1299, H1975, A549 and LLC-1 (lung cancer), HepG2 and Hep3B (liver cancer) and LO2 (normal human hepatocytes).”
as §2

The subject of data set [14] is OV2008 cervical cancer cells. Nature of the data set: MTT cytotoxicity, OV2008 (cisplatin-sensitive). In kind it is cell-based. To be noted: 72 h. Here is the method:
as §1, with “experiments.” for “experiments. Cells include HeLa cells (cervical cancer), MCF-7 (breast cancer), H1299, H1975, A549 and LLC-1 (lung cancer), HepG2 and Hep3B (liver cancer) and LO2 (normal human hepatocytes).”
as §3

Data set [15] concerns OV2008/C13 cervical cancer cells. Nature of the data set: MTT cytotoxicity, OV2008/C13 (cisplatin-resistant). The class given is cell-based. Here is the method: as §1, with “experiments.” for “experiments. Cells include HeLa cells (cervical cancer), MCF-7 (breast cancer), H1299, H1975, A549 and LLC-1 (lung cancer), HepG2 and Hep3B (liver cancer) and LO2 (normal human hepatocytes).”
as §3

Data set [16] has as its system HCT116 p53^+/+ colon cancer cells. Description: MTT cytotoxicity, HCT116 p53+/+. The class given is cell-based, human. The settings on record: 72 h. Here is the method:
as §1, with “experiments.” for “experiments. Cells include HeLa cells (cervical cancer), MCF-7 (breast cancer), H1299, H1975, A549 and LLC-1 (lung cancer), HepG2 and Hep3B (liver cancer) and LO2 (normal human hepatocytes).”
as §3

Data set [17] relates to HCT116 p53^−/− colon cancer cells. Nature of the data set: MTT cytotoxicity, HCT116 p53-/-. The class given is cell-based, human. Here is the method:
as §1, with “experiments.” for “experiments. Cells include HeLa cells (cervical cancer), MCF-7 (breast cancer), H1299, H1975, A549 and LLC-1 (lung cancer), HepG2 and Hep3B (liver cancer) and LO2 (normal human hepatocytes).”
as §3

Molecules are shown by their SMILES.

`Cc1ccnc(-c2cc(C)ccn2)c1.Cc1ccnc(-c2cc(C)ccn2)c1.Cc1ccnc(-c2cc(C)ccn2)c1.[Cl-].[Cl-].[Cl-].[Co+3]` [complex (IV)-Cl]: the “reduction in body weight” value in [1] is “no significant reduction in body weight”.
By IC50 is commonly meant the concentration that gives 50% inhibition. Lower therefore signals higher potency. Consider `F[P-](F)(F)(F)(F)F.F[P-](F)(F)(F)(F)F.[Co+2].c1ccc(-c2ccccn2)nc1.c1ccc(-c2ccccn2)nc1.c1ccc(-c2ccccn2)nc1` [complex (V), [Co^II(N^N)3](PF6)2], for which the IC50 was found to be 24.2 µM in [2]; 15.8 µM in the data set on MCF-7 (breast cancer); 9.4 µM in the data set on H1299 (lung cancer); 17 µM with H1975 (lung cancer); 26.3 µM in the data set with A549 (lung cancer); 17.2 µM with LLC-1 (lung cancer). The IC50 with HepG2 (liver cancer) came to 13.3 µM; with Hep 3B (liver cancer), 6.92 µM; in [3] it was 33.6 µM; in [4], 13.4 µM; in data set [5] (MCF-7, MTT, 72 h), 16.8 µM; in data set [6], 11.4 µM. The IC50 in data set [7] (HCT8, MTT, 72 h) was found to be 7.78 µM; in data set [8], 29.9 µM; in data set [9] (A549, MTT, 72 h), 7.85 µM; in data set [10] it was 28.8 µM; in [11] (A2780, MTT, 72 h), 31.6 µM; in [12] it was 29.9 µM. The IC50 in data set [13] (SGC-7901, MTT, 72 h) came out at 29.9 µM; in data set [14], 18.9 µM; in data set [15] (OV2008/C13, MTT, 72 h), 14.9 µM; in data set [16] it was 34.3 µM; in data set [17] (MTT, 72 h) it was 29.1 µM. Also, the “Resistant Factor” value in [5] (MCF-7, IC50 taxol-resistant over IC50 taxol-sensitive) came out at 1.25; in data set [7] (HCT8, IC50 taxol-resistant over IC50 taxol-sensitive), 0.68; in [9] (A549, IC50 taxol-resistant over IC50 taxol-sensitive), 0.26; in data set [11] (A2780, cisplatin-resistant over cisplatin-sensitive) it was 1.10; in [13] (SGC-7901, cisplatin-resistant over cisplatin-sensitive), 1.00; in data set [15] (OV2008/C13 over OV2008), 0.79. In data set [17] (HCT116 p53^−/− over HCT116 p53^+/+), the “Resistant Factor” value worked out at 0.85.
